These results are taken from patent US20060166957A1, “Methods of treating obesity and related disorders using tellurium selenium compounds” (priority 2003, published 2006).

Each structure is given as a SMILES string. Where two headings read alike, the source gives them in different places.

The test system of one series is ob/ob mice. The series can be described thus: AS101 in drinking water of ob/ob mice in metabolic cages: body weight, food intake, blood glucose. Format: in vivo. How it is done: Female ob/ob mice (8 weeks old) were placed in metabolic cages and were given free drinking water and chow. After 48 h, one group of 3 mice (the Control group) continued to receive water and chow. A second group of 3 mice received drinking water containing AS 101 (7 mg/L) in addition to the standard chow. The experiment was continued for 18 days and body weights were measured daily. On the average the mice consumed about 1.5 ml of water per 24 h, corresponding to 10 microgram AS101 per mouse per day. This value corresponds to 0.25 mg/kg body weight per 24 h.
On the average, food consumption was reduced by 26±7% (p<0.02, n=16, FIG. 2).
On the last day of treatment, tail blood was withdrawn and blood glucose was determined in three control mice and three mice of the AS101 group.

The subject of series [1] is liver tissue of ob/ob mice. The series can be described thus: Microscopic examination of liver tissue of ob/ob mice after 18 days of AS101 treatment. Format: in vivo. The following applies: 18 days AS101 treatment, vs control mice, FIG. 4. From the text: Following 18 days treatment of the ob/ob mice with AS101 as described in Example 1, the animals were sacrificed. Samples of liver tissue were taken, fixed with formaldehyde and tissue slices were examined microscopically (FIG. 4).

Series [2] relates to diet-induced obese C57BL/6 mice. The series is described as follows: Body weight of diet-induced obese C57BL/6 mice injected daily with AS101. Format: in vivo. Here is the method:
Since the obesity of ob/ob mice is of genetic origin, whereas obesity among human populations is largely due to excess eating over energy expenditure, the effect of AS101 on body weight was studied in diet-induced obese mice. Female mice were fed for 10 weeks with a high fat diet, resulting in moderate obesity (average weight 37 g). Mice were placed in metabolic cages and injected daily with either saline (Control group, 3 mice) or AS 101 (0.5 mg/kg body weight in saline, AS101 group, 3 mice). High fat diet was continued and the body weight was determined daily. […] Therefore, AS101 is an effective medicament for the treatment of diet-induced obesity.

Series [3] concerns Swiss 3T3-F442A murine pre-adipocytes. The series is described as follows: Differentiation of pre-adipocytes into mature adipocytes, oil red staining. Format: cell-based. The following applies: AS101 0.2 micrograms/ml, six days in DMEM with 10% FBS, oil red stain, FIG. 6. How it is done: To gain insight on the mechanism by which AS101 affects the adipose tissue, its effect was studied on an in-vitro model of differentiation of pre-adipocytes into mature adipocytes. It should be clarified here that adipocytes are fully differentiated cells. […] Besides increase in cell volume, the only way to gain weight in vivo is by generating new adipocytes from pre-adipocytes by differentiation. Swiss 3T3-F442A murine pre-adipocytes were grown in DMEM (GIBCO, USA) with 10% calf serum. To induce differentiation into mature adipocytes, confluent cell cultures were maintained in DMEM supplemented with 10% fetal bovine serum (FBS) for six days, either in the presence or in the absence of AS101 (0.2 micrograms/ml). The cultures were then stained with oil red, which specifically stains the fat droplets within the cells.

The subject of another series is 6-week-old mice. Conditions: cited from earlier work.

As for `Cl[TeH]1(Cl)(Cl)OCCO1` [AS101, ammonium trichloro(dioxoethylene-O,O′)tellurate], the body weight gain entry in the series with ob/ob mice (female ob/ob mice, AS101 7 mg/L in drinking water (0.25 mg/kg body weight per 24 h), 18 days, vs Control group, FIG. 1) is “did not gain weight significantly”. Moreover, the “reduction of food consumption, on the average” value in the series with ob/ob mice (female ob/ob mice, AS101 7 mg/L in drinking water, daily food consumption, p<0.02, n=16, FIG. 2) turned out to be 26±7%. Also, in the series on ob/ob mice (ob/ob mice, tail blood on the last day of treatment (18 days), AS101 7 mg/L in drinking water, FIG. 3), the blood glucose entry is “statistically significant (p<0.05) reduction”. For the same compound, the “number and size of adipocytes in liver tissue” value in series [1] is “extensive reduction in the number of adipocytes and in their size”. Further, the body weight entry in series [2] (female mice on high fat diet, AS101 0.5 mg/kg body weight in saline injected daily, vs saline control, FIG. 5) was “reduced significantly and continued to drop through the entire study”. The food intake entry in series [2] (normal mice rendered obese by high-fat diet, AS101 by daily injections) is on record as “reduction of food intake”. Besides, the “differentiation of pre-adipocytes into mature adipocytes (fat droplets)” value in series [3] is on record as “inhibited the differentiation”. Also, the figures for the LD50 in the series with 6-week-old mice and in the series with 6-week-old mice (same value re-expressed) were 300 μg/25 g of body weight and 12 mg/kg body weight, respectively.
